{
  "source": "patent US10973810B2",
  "about": "“Methods for the treatment of neurological disorders” (Yumanity Therapeutics, Inc., priority 2017, dated 2021)",
  "key": {"yeast OLE1": {"target": "T1, yeast OLE1 (Saccharomyces cerevisiae, UniProt P21147, L450T/T449L)", "T1 construct": "expressed in transfected cells; host or cells: S. cerevisiae ole1Δ strain (W303 pdr1Δ pdr3Δ background), plasmid pRS316 with TDH3 promoter and CYC1 terminator", "T1 sequence (P21147 whole entry T449L/L450T)": "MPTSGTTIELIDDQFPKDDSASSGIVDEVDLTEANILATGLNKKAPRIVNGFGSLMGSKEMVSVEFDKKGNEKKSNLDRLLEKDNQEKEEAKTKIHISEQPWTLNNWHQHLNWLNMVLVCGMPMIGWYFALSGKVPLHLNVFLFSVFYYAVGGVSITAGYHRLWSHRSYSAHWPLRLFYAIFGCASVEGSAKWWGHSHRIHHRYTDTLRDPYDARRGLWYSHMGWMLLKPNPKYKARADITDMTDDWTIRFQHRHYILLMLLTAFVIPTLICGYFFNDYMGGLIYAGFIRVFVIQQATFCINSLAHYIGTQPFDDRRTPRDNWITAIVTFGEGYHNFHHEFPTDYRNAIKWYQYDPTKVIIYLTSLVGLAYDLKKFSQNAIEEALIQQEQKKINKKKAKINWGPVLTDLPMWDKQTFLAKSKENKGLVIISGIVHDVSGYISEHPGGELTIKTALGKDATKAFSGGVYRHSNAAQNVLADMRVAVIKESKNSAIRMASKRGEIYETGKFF", "experiment": "Growth of yeast surviving solely on yeast OLE1", "format": "cell-based", "conditions": "24 h", "source_text": "To generate yeast strains expressing SCD1 or SCD5 as the sole desaturase, the human SCD1 and SCD5 genes were cloned from cDNAs (Harvard PlasmID database Clone ID HsCD00340237 for SCD1 and HsCD00342695 for SCD5) into yeast plasmid pRS316 (ATCC 77145) between the yeast TDH3 promoter and the CYC1 terminator. The coding sequence of yeast OLE1 was also cloned into this plasmid). These clones were then transformed into the ole1d strain and plated on CSM-Ura media (CSM lacking uracil) with 2% glucose (w/v) and independent colonies were isolated and amplified.\nFor experiments using a plasmid-borne copy of Ole1, SCD1, or SCD5 (FIGS. 3B, 6, and 7), media lacking uracil (SX-Ura, where X is glucose, raffinose, or galactose), was used for all steps of the compound profiling protocol to ensure its maintenance throughout the assay.\nAfter yeast delivery, assay plates were incubated under humidified conditions at 30° C. for 24 to 40 h. ApoE4 rescue experiments were stopped at 24 h, aSyn experiments at 40 h, Ole1 at 24 h, and SCD1/SCD5 at 40 h. The growth of yeast was monitored by reading the OD600 of each well using a microplate reader (Perkin Elmer EnVision™). For model rescue experiments, raw data were processed by background subtracting and calculating a fold-change relative to DMSO control [(EXP-0.035)/(DMSO-0.035)—where 0.035 is the OD600 contributed by an empty well containing 30 μL of media alone]. For growth inhibition of wild-type cells, raw data were processed by background subtracting and converting values to a percent of the nontreated condition for that strain [(EXP-0.035)/(DMSO-0.035)×100%]."}, "SCD": {"system": "SCD", "experiment": "Fatty acid saturation in guinea pig brain after oral administration of SCD inhibitors (GC-FID of FAME)", "format": "in vivo", "conditions": "25 mg/kg orally twice daily for 5 days; brain 4 h after last dose; vs vehicle", "experimental": "FIG. 18A-18F are a series of graphs showing an evaluation of fatty acid saturation in guinea pig brain after oral administration of SCD inhibitors. Guinea pigs were dosed orally with SCD inhibitors twice daily (every 12 hours) for 5 days. Guinea pigs were dosed with vehicle, SCD5 Selective Inhibitor 1 (“SCD5-SI-1”), SCD5 Selective Inhibitor 2 (“SCD5-SI-2”), CAY10566 (“CAY”) or SCD1/SCD5 Inhibitor 1 (“SCD1/5-1”), all compounds at 25 mg/kg with a volume-matched vehicle control. Four hours after the last dose on day 5, guinea pigs were sacrificed, and brains were removed after whole-body saline perfusion. […] Samples were evaluated on a gas chromatograph with a flame ionization detector (GC-FID) to quantify a comprehensive panel of fatty acid species. Brain samples were evaluated for levels of 16 (FIG. 18A) and 18 (FIG. 18B) carbon-containing fatty acids (C16, C18 respectively), and the desaturation index (DI) was calculated by taking the ratio of desaturated to saturated fatty acid for each species. […] Brain samples were evaluated for the relative levels of the positional isomers of C16, including C16:1 n7 palmitoleic acid (FIG. 18C) or C16:1 n9 monounsaturated fatty acids (FIG. 18D). […] Data was analyzed by one-way ANOVA with Tukey's post-hoc test to account for multiple comparisons. **p<0.01, ***p<0.005, ****p<0.0001. […]"}},
  "data": [
    {"smiles": "Cc1nnc(-c2ccc(N3CCC(Oc4cc(F)ccc4Cl)CC3)nn2)o1", "note": "[CAY10566]", "values": [
      {"measurement": "growth of yeast strain expressing Ole1 (percent of DMSO-treated condition)", "setting": "yeast OLE1", "value": "resistant"},
      {"measurement": "C16 desaturation index (DI) in brain", "setting": "SCD", "value": "decreased"}
    ]}
  ]
}
